US11759444B2, “Methods for cancer and immunotherapy using prodrugs of glutamine analogs” (The Johns Hopkins University, priority 2015, dated 2023)
“Also recorded” adds a separate entry of the source.

Columns and labels:
[1] = Chemical stability of DON esters and prodrugs; assay type: physicochemical
[2] = In vitro plasma stability, human plasma; details: for PLASMA STABILITY Human: Table 2, prodrug 10 μM, 60 min incubation at 37° C., values read as % prodrug remaining
[3] = In vitro plasma stability, monkey plasma; details: for PLASMA STABILITY Monkey: Table 2, prodrug 10 μM, 60 min incubation at 37° C., values read as % prodrug remaining
[4] = In vitro plasma stability, mouse plasma; details: Table 2; prodrug 10 μM, 60 min incubation at 37° C.; values read as % prodrug remaining
[5] = In vitro liver microsomal stability, pig
[6] = In vitro liver microsomal stability, human
[7] = Plasma and CSF pharmacokinetics in swine, i.v. infusion; assay type: in vivo, Göttingen×Yucutan miniature swine; details: 60 min post-administration
EL4 lymphoma = experiment: EL4 mouse lymphoma model; assay type: in vivo; details: monotherapy
[8] = cited from earlier work
TILs = experiment: CD8/Treg ratio in the tumor and hypoxia in the TILs; details: in vivo
B16 melanoma = B16 melanoma mouse model; assay type: in vivo
U87 human glioma cells = experiment: U87 flank xenograft mouse model of GBM; assay type: in vivo; details: 0.8 mg/kg, i.p.; for GBM tumor growth: q.d. days 1-6
Method: All mouse efficacy studies were conducted according to protocol #M013M69 approved by the Animal Care and Use Committee at Johns Hopkins University. Female athymic (RH_Foxn1nu mice) mice between 25 and 30 g were obtained (Harlan Sprague Dawley Inc, Indianapolis, Ind.), and maintained on a 12 hour light-dark cycle with ad libitum access to food and water. U87 human glioma cells were injected s.c. (5×10^6 cells in […] of PBS) in four separate locations on the flanks of each mouse. When tumors grew to a mean volume of around 200 mm^3, mice were randomized into either vehicle (HEPES-buffered saline, i.p.) or DON (1; 0.8 mg/kg, i.p.). In one cohort, mice were administered a single dose of the appropriate solution two hours after which glutamine levels were quantified in the tumor as described previously.^49 In brief, tumors were harvested, snap frozen, and homogenized in liquid N2 then subjected to metabolite extraction using methanol and DI water. Quantification was performed using Agilent 6520 Quadrupole-Time-of-Flight (Q-TOF) mass spectrometer with Agilent 1290 HPLC and using Agilent Mass Hunter and Agilent Qualitative and Quantitative Analysis Software packages. Glutamine content was averaged by group for each individual tumor (n=3-4/group), depicted as relative intensity, and analyzed by one-tailed t test. In a second cohort, efficacy experiments were conducted. Mice were injected once daily for six days; tumor volumes were measured using digital calipers and calculated according to the formula: [volume=(largest tumor dimension)×(smallest tumor dimension)×0.52] at 2, 4, and 6 days after the onset of treatment. Each individual tumor (n=8-10/group) was normalized to its pretreatment volume, averaged and analyzed by repeated measures two-way analysis of variance (ANOVA). If significant, a Bonferroni post hoc test was subsequently applied. Significance was defined as p<0.05.

[9] = Brain and plasma pharmacokinetics in mice, oral; assay type: in vivo, C57BL/6 mice; details: 0.8 mg/kg DON equivalent
Method: All pharmacokinetic studies in mice were conducted according to protocol (#M013M113) approved by the Animal Care and Use Committee at Johns Hopkins University. C57BL/6 mice between 25 and 30 g were obtained from Harlan, and maintained on a 12 hour light-dark cycle with ad libitum access to food and water. To evaluate the brain and plasma pharmacokinetics of DON and its prodrug 5c, 8-12 week old C57BL/6 were administered DON (1; 0.8 mg/kg, p.o. in phosphate-buffered saline) and its prodrug 5c (at 0.8 mg/kg equivalent DON (1), p.o. in phosphate-buffered saline with 5% EtOH and 5% Tween-80). The mice were sacrificed by pentobarbital injection at 10, 30 and 90 minutes post drug administration, and blood was collected via cardiac puncture and placed into iced EDTA coated BD microtainers. […]
We have previously published a highly sensitive method for analysis of DON in biological matrices (Alt, et al., 2015). […] The mean predicted […] for back calculated concentrations of the standards and QC's for all analytes were within the range of 85 to 115%, except for the lowest concentration which was within the range of 80 to 120% with an overall accuracy and precision of 6.7% and 6.6% respectively.
Mean concentration-time data was used for pharmacokinetic analysis. […] Area under the curve (AUC) was calculated by log-linear trapezoidal rule to the end of sample collection (AUClast).

tumor cells = experiment: Oxygen consumption and lactate production of tumor cells; assay type: cell-based

**Q.** For `CCOC(=O)C(N)CCC(=O)C=[N+]=[N-]` (stereo not drawn) [Compound 2a], which “chemical stability” value [1] is on record?
**A.** Its value is “unstable”.

**Q.** With `CC(C)OC(=O)C(N)CCC(=O)C=[N+]=[N-]` (stereo not drawn) [Compound 2b] as the compound, how does the “chemical stability” value [1] read?
**A.** Its value is “unstable”.

**Q.** For `CCOC(=O)[C@H](CCC(=O)C=[N+]=[N-])NC(=O)OC(C)OC(=O)C(C)(C)C` (stereo partly drawn) [Compound 5b], which “stability in human plasma” value [2] is on record?
**A.** The value was “stable”.

**Q.** What about the “stability in monkey plasma” value [3] of the same compound?
**A.** The value was “stable”.

**Q.** Which results are given for `CC(C)C[C@H](N)C(=O)N[C@@H](CCC(=O)C=[N+]=[N-])C(=O)OC(C)C` [Compound 9]?
**A.** PLASMA STABILITY Mouse [4]: 0%; liver microsomal stability, pig [5]: moderate-high stability; liver microsomal stability, human [6]: moderate-high stability; PLASMA STABILITY Human [2]: 1%; PLASMA STABILITY Monkey [3]: 1%

**Q.** For `CCOC(=O)[C@@H]1CCC(C=[N+]=[N-])=N1` [Compound 9a], which “chemical stability” value [1] is on record?
**A.** The value was “chemically stable even at acidic pH”.

**Q.** With `CC(C)OC(=O)[C@@H]1CCC(C=[N+]=[N-])=N1` [Compound 9b] as the compound, how does the “chemical stability” value [1] read?
**A.** The value was “chemically stable even at acidic pH”.

**Q.** What does the source list for `Cc1oc(=O)oc1COC(=O)N[C@@H](CCC(=O)C=[N+]=[N-])C(=O)OC(C)C` [Compound 13]?
**A.** PLASMA STABILITY Mouse [4]: 0%; PLASMA STABILITY Human [2]: 0%; PLASMA STABILITY Monkey [3]: 0%

**Q.** Which results are given for `CCOC(=O)[C@H](CCC(=O)C=[N+]=[N-])NC(=O)OC(C)OC(=O)C(C)(C)C` (stereo partly drawn) [Compound 32]?
**A.** PLASMA STABILITY Mouse [4]: 0%; PLASMA STABILITY Human [2]: 88%; PLASMA STABILITY Monkey [3]: 75%

**Q.** With `CCOC(=O)[C@H](CCC(=O)C=[N+]=[N-])NC(=O)[C@@H](N)Cc1cc2ccccc2[nH]1` [Compound 34] as the compound, how does the PLASMA STABILITY Mouse [4] read?
**A.** Its PLASMA STABILITY Mouse is 0%.

**Q.** What about the PLASMA STABILITY Human [2] of the same compound?
**A.** Its PLASMA STABILITY Human is 12%.

**Q.** What about the PLASMA STABILITY Monkey [3] of the same compound?
**A.** The PLASMA STABILITY Monkey was 4%.

**Q.** Which PLASMA STABILITY Mouse [4] does the source give for `CCOC(=O)[C@H](CCC(=O)C=[N+]=[N-])NC(=O)OCc1oc(=O)oc1C` [Compound 36] here?
**A.** Its PLASMA STABILITY Mouse is 0%.

**Q.** And the PLASMA STABILITY Human [2]?
**A.** Its PLASMA STABILITY Human is 0%.

**Q.** What about the PLASMA STABILITY Monkey [3] of the same compound?
**A.** Its PLASMA STABILITY Monkey is 0%.

**Q.** For `CC(C)OC(=O)[C@H](CCC(=O)C=[N+]=[N-])NC(=O)[C@@H](N)Cc1cc2ccccc2[nH]1` [Compound 38], which PLASMA STABILITY Mouse [4] is on record?
**A.** Its PLASMA STABILITY Mouse is 0%.

**Q.** And the PLASMA STABILITY Human [2]?
**A.** Its PLASMA STABILITY Human is 30%.

**Q.** What about the PLASMA STABILITY Monkey [3] of the same compound?
**A.** Its PLASMA STABILITY Monkey is 10%.

**Q.** What does the source list for `CC(C)OC(=O)[C@H](CCC(=O)C=[N+]=[N-])NC(=O)[C@@H](N)Cc1c[nH]c2ccccc12` [Compound 38a]?
**A.** liver microsomal stability, pig [5]: moderate-high stability; liver microsomal stability, human [6]: moderate-high stability

**Q.** With `CC(C)OC(=O)[C@H](CCC(=O)C=[N+]=[N-])NC(=O)OCOC(=O)C(C)(C)C` [Compound 42] as the compound, how does the PLASMA STABILITY Mouse [4] read?
**A.** Its PLASMA STABILITY Mouse is 0%.

**Q.** What about the PLASMA STABILITY Human [2] of the same compound?
**A.** Its PLASMA STABILITY Human is 9%.

**Q.** What about the PLASMA STABILITY Monkey [3] of the same compound?
**A.** The PLASMA STABILITY Monkey was 0%.

**Q.** For `CC(C)OC(=O)[C@H](CCC(=O)C=[N+]=[N-])NC(=O)OC(OC(=O)C(C)(C)C)c1ccccc1` (stereo partly drawn) [Compound 47], which “CSF delivery of DON” value [7] is on record?
**A.** Its value is “substantially higher amounts of DON; also recorded: enhanced CSF delivery of DON”.

**Q.** What about the “CSF-to-plasma ratio of DON” value [7] of the same compound?
**A.** Its value is “increased CSF-to-plasma ratios; also recorded: enhanced CSF:plasma ratio of DON”.

**Q.** Which results are given for `CC(=O)N[C@@H](Cc1c[nH]c2ccccc12)C(=O)N[C@@H](CCC(=O)C=[N+]=[N-])C(=O)OC(C)C` [Compound 60a]?
**A.** liver microsomal stability, pig [5]: moderate-high stability; liver microsomal stability, human [6]: moderate-high stability

**Q.** What does the source list for `[N-]=[N+]=CC(=O)CC[C@H](N)C(=O)O` [DON, 6-diazo-5-oxo-L-norleucine]?
**A.** lymphoma tumor growth (EL4 lymphoma): markedly inhibit lymphoma growth; clinical toxicity ([8]; human, in vivo): dose limiting toxicities, many of which were GI-related; regression or stable disease in patients ([8]; late stage adult patients, children with hematological malignancies or solid tumors): > 50%; CD8/Treg ratio in the tumor (TILs): improved the CD8/Treg ratio; hypoxia in the TILs (TILs): reduces hypoxia in the TILs; tumor infiltrating regulatory T cells (Foxp3+) (B16 melanoma; B16 melanoma): inhibiting tumor infiltrating regulatory T cells; melanoma tumor growth (B16 melanoma; monotherapy): modest effect; glutamine metabolism in flank GBM tumor (endogenous glutamine accumulation) (U87 human glioma cells; 2 hours post-administration): inhibited glutamine metabolism; reduction in tumor volume (U87 human glioma cells; q.d.): > 50%; weight loss (U87 human glioma cells; q.d.): 12±4.1%; GBM tumor growth (U87 human glioma cells): halted tumor growth, but also effectively induced tumor regression; GBM tumor growth (U87 human glioma cells; listed as 1): dramatic reduction in tumor size; signs of toxicity (U87 human glioma cells; q.d., all mice receiving DON): hunching, ptosis, and lethargy; AUC0-t of DON in brain [9]: 0.57 nmol·h/g; lactate production of tumor cells (tumor cells): reduces; oxygen consumption of tumor cells (tumor cells): reduces
